Values after ≈ are worked out from the molar mass of the structure shown.

In ChEMBL document CHEMBL1139319, “Notoamides F-K, prenylated indole alkaloids isolated from a marine-derived Aspergillus sp” (J Nat Prod, 2008) one finds IC50 data, which are given here for 4 molecules.

The test deals with HeLa. Description: Cytotoxicity against human HeLa cells after 3 days by MTT assay. Type of test: functional, cell-based. To be noted: 72 h. A general note: Tetrazolium dyes change colour on reduction, which living cells bring about.
`CO[C@H]1c2c([nH]c3c4c(ccc23)OC(C)(C)C=C4)C(C)(C)[C@@H]2C[C@]34CCCN3C(=O)[C@]12NC4=O` [NOTOAMIDE F] registered an IC50 above 50 µg/mL.

Consider `CC1(C)C=Cc2c(ccc3c4c([nH]c23)C(C)(C)[C@@H]2C[C@]35CCCN3C(=O)[C@]2(NC5=O)C4=O)O1` [NOTOAMIDE I], for which the IC50 amounted to 21 µg/mL (≈ 47.1 µM).

In turn, `C=CC(C)(C)[C@]1(C[C@@H]2NC(=O)[C@@H]3CCCN3C2=O)C(=O)Nc2cc(O)ccc21` [NOTOAMIDE J] showed an IC50 above 50 µg/mL.

In turn, `C=CC(C)(C)[C@@]12Nc3c(ccc4c3C=CC(C)(C)O4)[C@]1(O)C[C@]1(O)C(=O)N3CCC[C@H]3C(=O)N21` [NOTOAMIDE K] returned an IC50 above 50 µg/mL.

As usually defined, the IC50 is the concentration needed to halve the response being measured. Low readings indicate higher potency, high ones lower potency.
